Laboratory results published in ChEMBL document CHEMBL1150933, “Cytotoxic sterols from the soft coral Nephthea erecta” (1998).
≈ marks a conversion by molar mass, not a printed value.

Legend:
Assay type in all cases: functional
KB = assay: Cytotoxicity against human KB cells after 3 days by MTT assay; conditions: 72 h, read-out: ED50 (the source's name)
P388 = assay: Cytotoxicity against mouse P388 cells after 3 days by MTT assay; conditions: P388, 72 h, read-out: ED50 (the source's name)
HT-29 = assay: Cytotoxicity against human HT-29 cells after 6 days by MTT assay; conditions: HT-29, 144 h, read-out: ED50 (the source's name)
A549 = assay: Cytotoxicity against human A549 cells after 6 days by MTT assay; conditions: A549, 144 h, read-out: ED50 (the source's name)

SMILES | EC50 (KB) [µg/mL] | EC50 (P388) [µg/mL] | EC50 (HT-29) [µg/mL] | EC50 (A549) [µg/mL]
C=C(CC[C@@H](C)[C@H]1CC[C@H]2[C@@H]3C(=O)C=C4C[C@@H](O)CC[C@]4(CO)[C@H]3CC[C@]12C)C(C)C | > 50 | 0.4 (≈ 0.933 µM) | 3.34 (≈ 7.79 µM) | 4.09 (≈ 9.54 µM)
C=C(CC[C@@H](C)[C@H]1CC[C@H]2[C@@H]3C[C@@H](O)[C@@]4(O)C[C@@H](O)CC[C@]4(CO)[C@H]3CC[C@]12C)C(C)C | 0.39 (≈ 0.869 µM) | 0.34 (≈ 0.758 µM) | 0.93 (≈ 2.07 µM) | 0.81 (≈ 1.81 µM)
C=C(CC[C@@H](C)[C@H]1CC[C@H]2[C@@H]3CC=C4C[C@@H](O)CC[C@]4(CO)[C@H]3CC[C@]12C)C(C)C | 1.1 (≈ 2.65 µM) | 0.45 (≈ 1.09 µM) | 1.31 (≈ 3.16 µM) | 1.76 (≈ 4.24 µM)
C=C(CC[C@@H](C)[C@H]1C[C@@H](O)[C@H]2[C@@H]3CC=C4C[C@@H](O)CC[C@]4(CO)[C@H]3CC[C@@]21C)C(C)C | 0.6 (≈ 1.39 µM) | 0.07 (≈ 0.163 µM) | 0.17 (≈ 0.395 µM) | 0.41 (≈ 0.952 µM)
C=C(CC[C@@H](C)[C@H]1CC[C@H]2[C@@H]3[C@@H](OC(C)=O)C=C4C[C@@H](O)CC[C@]4(CO)[C@H]3CC[C@]12C)C(C)C | 0.38 (≈ 0.804 µM) | 0.42 (≈ 0.888 µM) | 0.87 (≈ 1.84 µM) | 0.81 (≈ 1.71 µM)
C=C(CC[C@@H](C)[C@H]1CC[C@H]2[C@@H]3[C@@H](O)C=C4C[C@@H](O)CC[C@]4(CO)[C@H]3CC[C@]12C)C(C)C | 0.58 (≈ 1.35 µM) | 0.24 (≈ 0.557 µM) | 0.72 (≈ 1.67 µM) | 0.69 (≈ 1.6 µM)
